# Experimental data taken from patent US20040091528A1, “Soluble drug extended release system” (Yamanouchi Pharma Technologies, Inc., priority 2002, published 2004).
# Where a name gives a salt, the structure may show the parent alone. Read-outs that look alike come from different tables or passages of the source.
# How the values were obtained:
# [1] = In vitro dissolution (drug release) from 400 mg matrix tablets, USP apparatus II, SGF or SIF; type: physicochemical; parameters: T50 (time during which 50% of drug has been released from matrix): unit not given here; conditions: for T50 values in SIF, PAA/PEO: PAA/PEO (1:1.5) formulation, 10% of active; for T10 / T50: 1:1.5 PAA/PEO excipient mixture; for T50 values in SIF, PAA/PEO / T10 / T50 / T50 in SIF: SIF; for Comments (interaction with PAA): Table 2; for T50 (time during which 50% of drug has been released from matrix): 10 wt. % drug, 400 mg PAA/PEO (1:1.5) tablet, modified SIF; for T50 in SGF: modified SGF
# Method: Several different formulations with different drugs were manufactured. Drugs were manually mixed with the excipients in a mortar and compressed into 400 mg tablets using Carver press or Oil press with 1000 lb applied force. Flat face 11 mm round tooling was used.
# In vitro drug release was measured by in vitro dissolution experiments. […] Drug release was evaluated with either Simulated Gastric Fluid (SGF), pH=1.2 or Simulated Intestinal Fluid (SIF), pH=7.5, both prepared according to USP without enzyme added. Tablet sinkers were applied in all experiments. At predetermined time intervals, a sample was withdrawn from the vessel and assayed using a UV-VIS spectrophotometer at a wavelength of 240 nm.
# The release behavior of a large group of basic highly soluble drugs (10 wt. % of drug ) from a directly compressed matrix tablet using 1:1.5 polyacrylic acid/polyethylene oxide (PAA/PEO) mix as excipient was studied under modified Simulated Intestinal Fluid (SIF) conditions.
# [2] = as above; type: physicochemical; conditions: for T50 values in SIF, PAA/Car: PAA/Carrageenan (1:1) formulation, 25% of active; for T50: negatively charged drugs from negatively charged PAA/PEO matrix
# [3] = cited from earlier work; for LogP: Table 4; for Log P: Table 1
# [4] = cited from earlier work
# [5] = Table 1, model drug characteristics
# [6] = Table 2, positively charged drugs
Molecule,"T50 values in SIF, PAA/PEO [1]","T50 values in SIF, PAA/Car [2]",T50 (time during which 50% of drug has been released from matrix) [1],"Solubility [4, 5]",Log P [3],further results
CNS(=O)(=O)CCc1ccc2[nH]cc(C3CCN(C)CC3)c2c1 [Naratriptan HCl],22,25,–,–,–,LogP [3]: 1.8
CC(C)(C)CC(C)(C)c1ccc(OCCOCC[N+](C)(C)Cc2ccccc2)cc1 [Benzethonium Chloride],–,–,–,–,–,T10 [1]: 25 h; Comments (interaction with PAA) [1]: Forms insoluble
CC1OC2(CS1)CN1CCC2CC1 (centres unmarked) [Cevimeline HCl],–,–,4.5,766 mg/mL,1.1,–
C[N+](C)(C)CC(=O)O [Betaine],–,–,–,–,–,"T10 [1]: 6 h; T50 [1]: 22 h; Solubility [4, 6]: 650 mg/mL"
COc1ccc([C@@H]2Sc3ccccc3N(CCN(C)C)C(=O)[C@@H]2OC(C)=O)cc1 [Diltiazem HCl],18,21,18,800 mg/mL,3.6,T50 in SIF ([1]; 1:1.5 PAA/PEO): 18 h; T50 in SGF ([1]; 1:1.5 PAA/PEO): 8 h; LogP [3]: 3.6
Diphenhydramine Citrate,–,–,–,–,–,T50 in SIF ([1]; 1:1.5 PAA/PEO): 25 h; T50 in SGF ([1]; 1:1.5 PAA/PEO): 12 h
CN(C)CCCN1c2ccccc2Sc2ccc(Cl)cc21 [Chlorpromazine HCl],–,–,56,400 mg/mL,–,–
CNC(=C[N+](=O)[O-])NCCSCc1ccc(CN(C)C)o1 [Ranitidine HCl],11,15,11,˜200 mg/ml,1.3,LogP [3]: 1.3
CCOc1ccccc1OCCN[C@H](C)Cc1ccc(OC)c(S(N)(=O)=O)c1 [Tamsulosin HCl],26,25,–,–,–,LogP [3]: 2.24
CN(C)CCOC(C)(c1ccccc1)c1ccccn1 (centres unmarked) [Doxylamine Succinate],23,22,23,1000 mg/mL,2.5,LogP [3]: 2.5
Cc1ncc(CO)c(CO)c1O.Cl [Pyridoxine HCl],–,–,4,–,−1.9,–
CN(C)CCCN1c2ccccc2CCc2ccccc21 [Imipramine HCl],–,–,58,500 mg/mL,–,–
Cc1ncc(C[n+]2csc(CCO)c2C)c(N)n1 [Thiamine HCl],7.5,7.5,–,–,–,"T10 [1]: 1 h; T50 [1]: 7.5 h; Release behaviour (in words) ([1]; permanently positively charged molecules, 1:1.5 PAA/PEO): slightly fast release; Solubility [4, 6]: 1000 mg/mL"
COc1cccc(C2(O)CCCCC2CN(C)C)c1 (centres unmarked) [Tramadol HCl],–,–,31,>1000 mg/mL,2.5,T50 in SIF ([1]; 1:1.5 PAA/PEO): 31 h; T50 in SGF ([1]; 1:1.5 PAA/PEO): 8 h
CN[C@@H](C)[C@@H](O)c1ccccc1 [Pseudoephedrine HCl],–,–,4,–,1.0,–
CCCCOc1cc(C(=O)OCCN(CC)CC)ccc1N [Benoxinate HCl],22,23,22,1000 mg/mL,4.0,LogP [3]: 5.2
Cc1nnc(SCC2=C(C(=O)[O-])N3C(=O)[C@@H](NC(=O)Cn4cnnn4)[C@H]3SC2)s1.[Na+] [sodium cefazoline],–,–,–,–,–,T50 [2]: about 5 hours
Amitriptuline HCl,–,–,57,–,–,–
CC(C[N+](C)(C)C)OC(N)=O (centres unmarked) [Bethanechol Chloride],–,–,–,–,–,T10 [1]: 10 h; T50 [1]: 55 h; T50 in SIF ([1]; 1:1.5 PAA/PEO): 55 h; T50 in SGF ([1]; 1:1.5 PAA/PEO): 24 h; Comments (interaction with PAA) [1]: Forms insoluble
CN(C)CCOC(c1ccccc1)c1ccccc1 [Diphenhydramine HCl],15,8,15,–,–,–
CO[C@@]1(NC(=O)CSCC#N)C(=O)N2C(C(=O)[O-])=C(CSc3nnnn3C)CS[C@@H]21.[Na+] [sodium cefmatazole],–,–,–,–,–,T50 [2]: about 5 hours
C[N+](C)(C)CC(=O)O [Betaine Hydrochloride],–,–,–,–,–,T50 in SIF ([1]; 1:1.5 PAA/PEO): 22 h; T50 in SGF ([1]; 1:1.5 PAA/PEO): 4 h
